Measured values reported in US20180280480A1, “COMPOSITIONS AND PEPTIDES HAVING DUAL GLP-1R AND GLP-2R AGONIST ACTIVITY” (priority 2014, published 2018).
Read-outs that look alike come from different tables or passages of the source. Each block holds one molecule with its values, some of them ahead of it. Ends that are not written are not given here.

Legend:
C57BL/6J mice [1] = test system: C57BL/6J mice
C57BL/6J mice [2] = experiment: Gut proliferation in C57BL/6J mice, PoC study 2 (liraglutide and teduglutide); format: in vivo
Text: (§1) Forty (40, n=10, 4 groups) male C57BL/6J mice obtained from Taconic, Denmark, were used. At the time of the experiment, the mice had reached an age of 9-10 weeks. The mice were acclimatized for one week in their new environment and offered regular chow diet (Altromin 1324, Brogaarden A/S, Denmark) and domestic quality tap water. Animals were housed two per cage during the study, in a light-, temperature-, and humidity-controlled room (12-hour light: 12-hour dark cycle, lights on/off at 4 AM/4 PM hour; 22±1° C.; 50±10% relative humidity). […] Animals were uniquely identified with implantable microchips (Pet ID Microchip, E-vet) in all mice upon arrival. Animals were identified using the WS-2 weight station (MBrose ApS, Faaborg, Denmark) connected to a laptop running the HM02Lab software (Ellegaard Systems, Faaborg, Denmark). The HM02Lab software matches the body weight with ID and calculates the dose directly based on the body weight. All mice were handled for 3 days prior to the experiment to acclimatize the animals to handling and injections.

C57BL/6J mice [3] = experiment: GLP1R-GLP2R dual agonist compound study: cumulative food intake; format: in vivo; conditions: Day 0-7; 3.0 mg/kg BID SC; mean ± S.E.M.
Text: as §1

C57BL/6J mice [4] = experiment: GLP1R-GLP2R dual agonist compound study: oral glucose tolerance test; format: in vivo; conditions: Day 7; 3.0 mg/kg BID SC; glucose 2 g/kg oral; mean ± S.E.M.
Experimental: On day 7, an oral glucose tolerance test (OGTT) was performed. Animals were mildly fasted as all food was removed 4 hours prior to the oral glucose load. Vehicle (SC) and compounds were administered subcutaneously (SC) 2 hours prior to the OGTT. At t=0 mice received an oral glucose load (2 g/kg; 4 ml/kg; 500 mg/ml, Fresenius Kabi, Sweden). Glucose was given as gavage via a gastrically-placed tube connected to a syringe ensuring accurate dosing. Blood glucose was measured from tail vein blood before glucose (at t=−120 and 0 min, baseline) and after glucose administration at t=15, 30, 60 and 120 min. Blood samples (tail vein) was collected into 10 μl heparinized glass capillary tubes and immediately suspended in buffer (0.5 ml of glucose/lactate system solution (EKF-diagnostics, Germany) and analyzed for glucose on the test day using a BIOSEN c-Line glucose meter (EKF-diagnostics, Germany) according to manufacturer's instructions. Results from the OGTT are listed below in Table 11.

C57BL/6J mice [5] = experiment: GLP1R-GLP2R dual agonist compound study: gut wet weight; format: in vivo; conditions: Day 8; 3.0 mg/kg BID SC; mean ± S.E.M.
Text: On study day 8, the mice were terminated and the GI tract was removed for determination of the gut wet weight. The gut wet weight results are listed below in Table 12.

GLP-2R = biological target: T1, GLP-2R (Homo sapiens, UniProt O95838); experiment: GLP2 receptor efficacy assay (in vitro functional screen, Euroscreen or DiscoveRx); conditions: EC50 of native GLP-2 / EC50 of compound
T1 sequence (O95838 1-553): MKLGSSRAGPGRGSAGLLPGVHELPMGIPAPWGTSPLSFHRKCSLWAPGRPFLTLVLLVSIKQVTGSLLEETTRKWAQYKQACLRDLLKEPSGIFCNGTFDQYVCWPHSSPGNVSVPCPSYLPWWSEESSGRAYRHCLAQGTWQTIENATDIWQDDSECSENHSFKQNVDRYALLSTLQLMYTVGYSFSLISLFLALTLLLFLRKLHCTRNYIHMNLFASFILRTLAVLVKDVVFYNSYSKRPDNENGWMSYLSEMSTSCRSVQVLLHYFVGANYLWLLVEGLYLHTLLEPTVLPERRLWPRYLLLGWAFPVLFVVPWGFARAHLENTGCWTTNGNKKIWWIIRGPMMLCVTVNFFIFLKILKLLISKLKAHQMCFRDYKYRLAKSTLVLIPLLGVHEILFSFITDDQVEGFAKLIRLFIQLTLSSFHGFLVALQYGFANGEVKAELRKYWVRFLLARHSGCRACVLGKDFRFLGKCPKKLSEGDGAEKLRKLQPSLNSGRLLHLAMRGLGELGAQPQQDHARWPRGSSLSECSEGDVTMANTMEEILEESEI

human GLP-2 receptor [6] = biological target: T2, human GLP-2 receptor (human, UniProt O95838 1-553, limits assumed); experiment: cell-based or functional assay
T2 sequence (looked up): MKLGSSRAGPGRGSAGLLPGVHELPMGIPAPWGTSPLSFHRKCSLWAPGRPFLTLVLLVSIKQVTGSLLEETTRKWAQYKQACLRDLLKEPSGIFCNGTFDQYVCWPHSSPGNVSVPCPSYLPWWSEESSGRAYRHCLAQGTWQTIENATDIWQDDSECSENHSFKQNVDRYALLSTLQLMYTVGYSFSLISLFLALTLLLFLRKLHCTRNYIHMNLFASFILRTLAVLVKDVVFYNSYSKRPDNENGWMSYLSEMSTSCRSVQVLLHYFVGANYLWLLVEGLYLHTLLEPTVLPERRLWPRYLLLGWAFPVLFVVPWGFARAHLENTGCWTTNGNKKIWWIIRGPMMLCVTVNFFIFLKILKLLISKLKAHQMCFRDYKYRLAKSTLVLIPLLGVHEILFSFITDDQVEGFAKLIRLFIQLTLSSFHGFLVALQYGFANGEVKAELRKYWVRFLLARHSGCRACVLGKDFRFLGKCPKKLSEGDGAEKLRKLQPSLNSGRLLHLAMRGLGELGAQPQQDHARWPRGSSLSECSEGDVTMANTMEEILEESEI

human GLP-1 receptor [7] = biological target: T3, human GLP-1 receptor (human, UniProt P43220 24-463, limits assumed); experiment: cell-based or functional assay
human GLP-2 receptor [8] = biological target: T2, human GLP-2 receptor; experiment: cell-based or functional assay; remark: listed apart in the source
human GLP-1 receptor [9] = biological target: T3, human GLP-1 receptor; experiment: cell-based or functional assay; remark: listed apart in the source
[10] = Day 8, BID SC, liraglutide 0.2 mg/kg, teduglutide 1.0 mg/kg, alone or combined, mean ± S.E.M.

Molecule: CC[C@H](C)[C@H](NC(=O)[C@H](Cc1ccccc1)NC(=O)[C@H](CC(=O)O)NC(=O)[C@H](CCCNC(=N)N)NC(=O)[C@H](C)NC(=O)[C@H](C)NC(=O)[C@H](CC(C)C)NC(=O)[C@H](CC(N)=O)NC(=O)[C@H](CC(=O)O)NC(=O)[C@H](CC(C)C)NC(=O)[C@@H](NC(=O)[C@@H](NC(=O)[C@H](CC(N)=O)NC(=O)[C@H](CCSC)NC(=O)[C@H](CCC(=O)O)NC(=O)[C@H](CC(=O)O)NC(=O)[C@H](CO)NC(=O)[C@H](Cc1ccccc1)NC(=O)[C@H](CO)NC(=O)CNC(=O)[C@H](CC(=O)O)NC(=O)[C@H](C)NC(=O)[C@@H](N)Cc1c[nH]cn1)[C@@H](C)O)[C@@H](C)CC)C(=O)N[C@@H](CC(N)=O)C(=O)N[C@@H](Cc1c[nH]c2ccccc12)C(=O)N[C@@H](CC(C)C)C(=O)N[C@H](C(=O)N[C@@H](CCC(N)=O)C(=O)N[C@H](C(=O)N[C@@H](CCCCN)C(=O)N[C@H](C(=O)N[C@H](C(=O)N[C@@H](CC(=O)O)C(=O)O)[C@@H](C)O)[C@@H](C)CC)[C@@H](C)O)[C@@H](C)CC [GLP-2]
Total intestine weight (C57BL/6J mice [1]; Day 8, 3 mg/kg BID SC, female C57BL/6J mice, mean ± S.E.M.): 1256 ± 30.1 mg
increase in intestinal weight compared to vehicle (C57BL/6J mice [1]; seven days of dosing, 3.0 mg/kg each BID SC): approx. 25%

relative GLP-2 activity (GLP-2R): 1.0
Molecule: CC[C@H](C)[C@H](NC(=O)[C@H](Cc1ccccc1)NC(=O)[C@H](CC(=O)O)NC(=O)[C@H](CCCNC(=N)N)NC(=O)[C@H](C)NC(=O)[C@H](C)NC(=O)[C@H](CC(C)C)NC(=O)[C@H](CC(N)=O)NC(=O)[C@H](CC(=O)O)NC(=O)[C@H](CC(C)C)NC(=O)[C@@H](NC(=O)[C@@H](NC(=O)[C@H](CC(N)=O)NC(=O)[C@H](CCSC)NC(=O)[C@H](CCC(=O)O)NC(=O)[C@H](CC(=O)O)NC(=O)[C@H](CO)NC(=O)[C@H](Cc1ccccc1)NC(=O)[C@H](CO)NC(=O)CNC(=O)[C@H](CC(=O)O)NC(=O)CNC(=O)[C@@H](N)Cc1c[nH]cn1)[C@@H](C)O)[C@@H](C)CC)C(=O)N[C@@H](CC(N)=O)C(=O)N[C@@H](Cc1c[nH]c2ccccc12)C(=O)N[C@@H](CC(C)C)C(=O)N[C@H](C(=O)N[C@@H](CCC(N)=O)C(=O)N[C@H](C(=O)N[C@@H](CCCCN)C(=O)N[C@H](C(=O)N[C@H](C(=O)N[C@@H](CC(=O)O)C(=O)O)[C@@H](C)O)[C@@H](C)CC)[C@@H](C)O)[C@@H](C)CC [Teduglutide]
Gut wet weight (C57BL/6J mice [2]; [10]): 2.6 ± 0.2 ^### g
Large intestine length (C57BL/6J mice [2]; [10]): 5.1 ± 0.6 cm
Large intestine weight (C57BL/6J mice [2]; [10]): 0.26 ± 0.03 g
Small intestine length (C57BL/6J mice [2]; [10]): 22.9 ± 1.6 cm
Small intestine weight (C57BL/6J mice [2]; [10]): 1.3 ± 0.2 g
effect of single treatment on gut weight and length (C57BL/6J mice [2]; PoC study 2, Tables 5, 6, 8, 9): increases in gut wet weight (Table 5), small intestine weight (Table 6) and small intestine length (Table 8)
Cumulative food intake (C57BL/6J mice [3]): 31.82 ± 6.52 g
Oral glucose tolerance test AUC, 0-120 min (C57BL/6J mice [4]): 890 ± 182 mmol·min/L
Gut wet weight (C57BL/6J mice [5]): 3.0 ± 0.3 g

GLP-2R, EC50 (human GLP-2 receptor [6]): > 1000 nM
GLP-1R, EC50 (human GLP-1 receptor [7]): 0.026 nM
GLP-2R, EC50 (human GLP-2 receptor [8]): > 100 nM
GLP-1R, EC50 (human GLP-1 receptor [9]): 0.004 nM
Molecule: HAEGTFTSDVSSYLEGQAAKEFIAWLVKG (ligand, ends and bridges not checked) [native human GLP-1]
